Source: US12384764B2, “Pharmaceutical compounds” (Pfizer Inc., priority 2019, dated 2025)

What was measured:
RSV = conditions: Antimicrobial Agents and Chemotherapy, September 2007, 3346-3353; cited from earlier work
RSV A2 = assay: RSV plaque reduction assay; type: cell-based; conditions: human respiratory syncytial virus, HepG2, 48 h; Hep-G2 cells, RSV A2, 2 days incubation; mean of at least two experiments
Description: Compounds were subjected to an RSV plaque reduction assay according to the following protocol.
Hep-G2 cells (ECACC, 85011430) were passaged in flasks and seeded in 24-well plates in DMEM containing antibiotics and supplemented with 10% FBS. During inoculation and subsequent incubation, cells were cultured in DMEM containing 2% FBS. 100 plaque forming unit/well of RSV (RSV A2 ECACC, 0709161v) was mixed with eight serial dilutions of compound. Subsequently, 100 μL of the virus/compound mixtures was added to confluent Hep-G2 cell monolayers. The cells and virus/compound mixtures were incubated at 37° C. in a humidified 5% CO2 incubator for 2 h prior to removal of the inoculum and addition of 1 mL of overlay (DMEM containing FBS and 0.8% CMC) containing compound dilutions. The cells and were incubated at 37° C. in a humidified 5% CO2 incubator for 2 days.
Cells were washed with PBS before adding 75/25% v/v EtOH/MeOH, for 3 min. Fixative was removed and plates were washed with PBS. A pre-titrated amount of the primary antibody was added in 200 μL PBS/2% milk powder, and plates incubated for 90 min at 37° C. The plates were washed 3 times with PBS/0.05% Tween20 before addition of rabbit anti-goat horse radish peroxidase in 200 μL PBS/2% milk powder, and incubated for 1 h at 37° C. Following three wash steps with PBS/0.05% Tween20, 200 μL ready-to-use TrueBlue was added and plates were incubated at rt for 10-15 min before washing with water. After removal of water, plates were air-dried in the dark.
Plates were scanned and analysed using the Immunospot S6 Macro analyser, which is equipped with BioSpot analysis software for counting immunostained plaques (virospots). Plaque counts were used to calculate % infection relative to the mean of the plaque count in the virus control wells for RSV. The EC50 value was calculated as 50% reduction in signal, respectively, by interpolation of inhibition curves fitted with a 4-parameter nonlinear regression with a variable slope in Dotmatics. Plaque EC50 and cell toxicity CC50 values are a mean of at least two experiments and figures are rounded to whole units.

Cell cytotoxicity (CC50) = type: cell-based; conditions: human, Hep-G2 cells; mean of at least two experiments
[1] = Liver microsomal stability, dog; type: in vitro ADME; conditions: pooled liver microsomes, pH 7.4; dog liver microsomes 0.5 mg/mL, 1 μM compound, NADPH, 37° C.; read-out: Liver Microsomal Stability t½, dog
Description: (§1) Compounds were subjected to the following assays to investigate liver microsomal stability.
(§2) Microsomal Incubation: Experimental Procedure
(§3) Pooled liver microsomes were purchased from a reputable commercial supplier and stored at −80° C. prior to use. Microsomes (final protein concentration 0.5 mg/mL), 0.1 M phosphate buffer pH 7.4 and test compound (final substrate concentration 1 μM; final DMSO concentration 0.25%) were pre-incubated at 37° C. prior to the addition of NADPH (final concentration 1 mM) to initiate the reaction. The final incubation volume was 50 uL. A control incubation was included for each compound tested where 0.1 M phosphate buffer pH 7.4 was added instead of NADPH (minus NADPH). Two control compounds were included with each species. All incubations were performed singularly for each test compound. Each compound was incubated for 0, 5, 15, 30 and 45 min. The control (minus NADPH) was incubated for 45 min only. The reactions were stopped by transferring incubate into acetonitrile at the appropriate time points, in a 1:3 ratio. The termination plates are centrifuged at 3,000 rpm for 20 min at 4° C. to precipitate the protein. Following protein precipitation, the sample supernatants were combined in cassettes of up to 4 compounds, internal standard added, and samples analysed by LC-MS/MS. From a plot of ln peak area ratio (compound peak area/internal standard peak area) against time, the gradient of the line was determined. Subsequently, half-life (t1/2) and intrinsic clearance (CLint) were calculated.

[2] = Liver microsomal stability, rat; type: in vitro ADME; conditions: pooled liver microsomes, pH 7.4; rat liver microsomes 0.5 mg/mL, 1 μM compound, NADPH, 37° C.; read-out: Liver Microsomal Stability t½, rat
Description: as §1, §2, §3

[3] = Liver microsomal stability, human; type: in vitro ADME; conditions: pooled liver microsomes, pH 7.4; human liver microsomes 0.5 mg/mL, 1 μM compound, NADPH, 37° C.; read-out: Liver Microsomal Stability t½, human
Description: as §1, §2, §3

SMILES	anti-RSV activity (RSV)	EC50 (RSV A2) [nM]	CC50 at 2 days (Cell cytotoxicity (CC50)) [nM]	half-life at 1 μM [1] [min]	half-life at 1 μM [2] [min]	half-life at 1 μM [3] [min]
O=C(Nc1ccccc1F)N[C@H]1N=C(c2ccccc2)c2ccccc2NC1=O [RSV604]	sub-micromolar	–	–	–	–	–
O=C(N[C@H]1N=C(c2ccccc2)c2cccc(F)c2NC1=O)c1cnn(C2COC2)c1Oc1ccc(Cl)cc1F [Example 3, 5-(4-Chloro-2-fluorophenoxy)-N-[(3S)-9-fluoro-2-oxo-5-phenyl-1,3-dihydro-1,4-benzodiazepin-3-yl]-1-(oxetan-3-yl)pyrazole-4-carboxamide]	–	71	> 25000	140	38.3	24.5
O=C(N[C@H]1N=C(c2ccccc2)c2cccc(F)c2NC1=O)c1cnn(C2COC2)c1Oc1c(F)cc(Cl)cc1F [Example 5, 5-(4-Chloro-2,6-difluorophenoxy)-N-[(3S)-9-fluoro-2-oxo-5-phenyl-1,3-dihydro-1,4-benzodiazepin-3-yl]-1-(oxetan-3-yl)pyrazole-4-carboxamide]	–	74	> 25000	174	42.3	15.8
CCn1ncc(C(=O)N[C@H]2N=C(c3ccccc3)c3ccccc3NC2=O)c1Oc1c(F)cc(C)cc1F [Example 1, 5-(2,6-Difluoro-4-methylphenoxy)-1-ethyl-N-[(3S)-2-oxo-5-phenyl-1,3-dihydro-1,4-benzodiazepin-3-yl]pyrazole-4-carboxamide]	–	91	> 25000	38.6	5	36
O=C(N[C@H]1N=C(c2ccccc2)c2cccc(F)c2NC1=O)c1cnn(C2CCOCC2)c1Oc1ccc(Cl)cc1F [Example 4, 5-(4-Chloro-2-fluorophenoxy)-N-[(3S)-9-fluoro-2-oxo-5-phenyl-1,3-dihydro-1,4-benzodiazepin-3-yl]-1-(oxan-4-yl)pyrazole-4-carboxamide]	–	67	> 25000	117	19.7	38.8
Cc1ccc(Oc2c(C(=O)N[C@H]3N=C(c4ccccc4)c4ccccc4NC3=O)cnn2C2CCOCC2)c(F)c1 [Example 2, 5-(2-Fluoro-4-methylphenoxy)-1-(oxan-4-yl)-N-[(3S)-2-oxo-5-phenyl-1,3-dihydro-1,4-benzodiazepin-3-yl]pyrazole-4-carboxamide]	–	89	> 25000	–	–	–
O=C(N[C@H]1N=C(c2ccccc2)c2cccc(F)c2NC1=O)c1cnn(C2CCOCC2)c1Oc1c(F)cc(Cl)cc1F [Example 6, 5-(4-Chloro-2,6-difluorophenoxy)-N-[(3S)-9-fluoro-2-oxo-5-phenyl-1,3-dihydro-1,4-benzodiazepin-3-yl]-1-(oxan-4-yl)pyrazole-4-carboxamide]	–	55	> 25000	–	–	–
